Reference: patent US6638973B2, “Taxane formulations” (FSU Research Foundation, Inc., priority 2000, dated 2003)

Each molecule was assayed on HCT116 cells (assay: In vitro cytotoxicity measured by the cell colony formation assay). Conditions: HCT116 cells, 72 h incubation with drug, colonies counted after 7 days; ID50 = drug concentration producing 50% inhibition of colony formation; read-out: IN VITRO ID 50 (nm) HCT116.
Assay type: cell-based
Procedure, shortened: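 Colony-forming survival was scored 7 days after a 72 h, 37 °C compound exposure followed by washout into fresh medium.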

Row | SMILES | IC50
1 | CCOC(=O)O[C@H]1C(=O)[C@@]2(C)C([C@H](OC(=O)c3ccccc3)[C@]3(O)C[C@H](OC(=O)[C@H](O)[C@H](C=C(C)C)NC(=O)OCC(C)C)C(C)=C1C3(C)C)[C@]1(OC(C)=O)CO[C@@H]1C[C@@H]2O (some centres unmarked) [Compound 5155] | < 10 nM
2 | CCOC(=O)O[C@H]1C[C@H]2OC[C@@]2(OC(C)=O)C2[C@H](OC(=O)c3ccccc3)[C@]3(O)C[C@H](OC(=O)[C@H](O)[C@@H](NC(=O)OC(C)(C)C)C4CC4)C(C)=C([C@@H](O)C(=O)[C@@]21C)C3(C)C (some centres unmarked) [Compound 5165] | < 1 nM
3 | CCOC(=O)O[C@H]1C(=O)[C@@]2(C)C([C@H](OC(=O)c3ccccc3)[C@]3(O)C[C@H](OC(=O)[C@H](O)[C@@H](NC(=O)OC(C)(C)C)C4CC4)C(C)=C1C3(C)C)[C@]1(OC(C)=O)CO[C@@H]1C[C@@H]2O (some centres unmarked) [Compound 5171] | < 1 nM

Same assay, conditions: HCT116 colony formation; 72 h drug incubation, colonies counted after 7 days; Example 5, C-7 ester/C-10 hydroxy taxanes; read-out: IN VITRO ID 50 (nm) HCT116

Row | SMILES | IC50
4 | C/C=C/C(=O)N[C@@H](c1ccsc1)[C@@H](O)C(=O)O[C@H]1C[C@@]2(O)[C@@H](OC(=O)c3ccccc3)C3[C@](C)(C(=O)[C@H](O)C(=C1C)C2(C)C)[C@@H](OC(=O)CC)C[C@H]1OC[C@@]31OC(C)=O (some centres unmarked) [Compound 5020] | < 1 nM
5 | C/C=C/C(=O)N[C@@H](c1ccsc1)[C@@H](O)C(=O)O[C@H]1C[C@@]2(O)[C@@H](OC(=O)c3ccccc3)C3[C@](C)(C(=O)[C@H](O)C(=C1C)C2(C)C)[C@@H](OC(=O)CCC)C[C@H]1OC[C@@]31OC(C)=O (some centres unmarked) [Compound 5030] | < 1 nM
6 | CCC(=O)O[C@H]1C[C@H]2OC[C@@]2(OC(C)=O)C2[C@H](OC(=O)c3ccccc3)[C@]3(O)C[C@H](OC(=O)[C@H](O)[C@@H](NC(=O)OC(C)(C)C)C4CC4)C(C)=C([C@@H](O)C(=O)[C@@]21C)C3(C)C (some centres unmarked) [Compound 5070] | < 10 nM
7 | CCCC(=O)O[C@H]1C[C@H]2OC[C@@]2(OC(C)=O)C2[C@H](OC(=O)c3ccccc3)[C@]3(O)C[C@H](OC(=O)[C@H](O)[C@@H](NC(=O)OC(C)(C)C)C4CC4)C(C)=C([C@@H](O)C(=O)[C@@]21C)C3(C)C (some centres unmarked) [Compound 5080] | < 1 nM
8 | CCC(=O)O[C@H]1C[C@H]2OC[C@@]2(OC(C)=O)C2[C@H](OC(=O)c3ccccc3)[C@]3(O)C[C@H](OC(=O)[C@H](O)[C@H](C=C(C)C)NC(=O)OCC(C)C)C(C)=C([C@@H](O)C(=O)[C@@]21C)C3(C)C (some centres unmarked) [Compound 5121] | 21.1 nM
9 | CCCC(=O)O[C@H]1C[C@H]2OC[C@@]2(OC(C)=O)C2[C@H](OC(=O)c3ccccc3)[C@]3(O)C[C@H](OC(=O)[C@H](O)[C@H](C=C(C)C)NC(=O)OCC(C)C)C(C)=C([C@@H](O)C(=O)[C@@]21C)C3(C)C (some centres unmarked) [Compound 5131] | < 10 nM
10 | CCC(=O)O[C@H]1C[C@H]2OC[C@@]2(OC(C)=O)C2[C@H](OC(=O)c3ccccc3)[C@]3(O)C[C@H](OC(=O)[C@H](O)[C@@H](NC(=O)OCC(C)C)C4CC4)C(C)=C([C@@H](O)C(=O)[C@@]21C)C3(C)C (some centres unmarked) [Compound 5191] | < 10 nM
11 | CCCC(=O)O[C@H]1C[C@H]2OC[C@@]2(OC(C)=O)C2[C@H](OC(=O)c3ccccc3)[C@]3(O)C[C@H](OC(=O)[C@H](O)[C@@H](NC(=O)OCC(C)C)C4CC4)C(C)=C([C@@H](O)C(=O)[C@@]21C)C3(C)C (some centres unmarked) [Compound 5202] | < 10 nM

Same assay, conditions: HCT116 colony formation; 72 h drug incubation, colonies counted after 7 days; Example 10, C-10 ester/C-7 hydroxy taxanes; read-out: IN VITRO ID 50 (nm) HCT116

Row | SMILES | IC50
12 | C/C=C/C(=O)N[C@@H](c1ccsc1)[C@@H](O)C(=O)O[C@H]1C[C@@]2(O)[C@@H](OC(=O)c3ccccc3)C3[C@](C)(C(=O)[C@H](OC(=O)C4CC4)C(=C1C)C2(C)C)[C@@H](O)C[C@H]1OC[C@@]31OC(C)=O (some centres unmarked) [Compound 5040] | < 1 nM
13 | CCC(=O)O[C@H]1C(=O)[C@@]2(C)C([C@H](OC(=O)c3ccccc3)[C@]3(O)C[C@H](OC(=O)[C@H](O)[C@H](C=C(C)C)NC(=O)OCC(C)C)C(C)=C1C3(C)C)[C@]1(OC(C)=O)CO[C@@H]1C[C@@H]2O (some centres unmarked) [Compound 5065] | < 10 nM
14 | CCCC(=O)O[C@H]1C(=O)[C@@]2(C)C([C@H](OC(=O)c3ccccc3)[C@]3(O)C[C@H](OC(=O)[C@H](O)[C@H](C=C(C)C)NC(=O)OCC(C)C)C(C)=C1C3(C)C)[C@]1(OC(C)=O)CO[C@@H]1C[C@@H]2O (some centres unmarked) [Compound 5144] | < 10 nM
